Measurements: patent publication US8952024B2, “Herbicidal pyrimidone derivatives” (E I du Pont de Nemours and Company, priority 2009, dated 2015)

Tests used:
Assay type in all cases: in vivo
[1] = system: wheat (Triticum aestivum); experiment: Test B pre-/postemergence plant response; settings: for Wheat plant response rating (0 to 100 scale): 0 is no effect
Procedure, shortened: (§1)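 Each species received compound formulated in non-phytotoxic solvent with surfactant, either at planting into a loam and sand blend or as a foliar spray once plants reached 2 to 18 cm in peat-based medium. Plants stayed in the greenhouse 13 to 15 days before visual evaluation against controls, scored 0 (no effect) to 100 (complete control).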

[2] = system: bermudagrass (Cynodon dactylon); experiment: Test B pre-/postemergence plant response; settings: for Bermudagrass plant response rating (0 to 100 scale): 0 is no effect
Procedure, shortened: as §1

[3] = system: cocklebur (Xanthium strumarium); experiment: Test B pre-/postemergence plant response; settings: for Cocklebur plant response rating (0 to 100 scale): 0 is no effect
Procedure, shortened: as §1

corn (Zea mays) = experiment: Test A pre-/postemergence plant response
Procedure, shortened: (§2)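 Each species was treated preemergence via directed soil spray and postemergence at the one- to two-leaf stage, with compounds formulated in a non-phytotoxic solvent plus surfactant. Visual injury relative to untreated controls was rated after about ten days on a 0–100 scale.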

[4] = system: barnyardgrass (Echinochloa crus-galli); experiment: Test A pre-/postemergence plant response
Procedure, shortened: as §2

[5] = system: wheat (Triticum aestivum); experiment: Test A pre-/postemergence plant response
Procedure, shortened: as §2

[6] = system: large crabgrass (Digitaria sanguinalis); experiment: Test A pre-/postemergence plant response
Procedure, shortened: as §2

[7] = system: pigweed (Amaranthus retroflexus); experiment: Test A pre-/postemergence plant response
Procedure, shortened: as §2

[8] = system: velvetleaf (Abutilon theophrasti); experiment: Test A pre-/postemergence plant response
Procedure, shortened: as §2

[9] = system: morningglory (Ipomoea spp.); experiment: Test A pre-/postemergence plant response
Procedure, shortened: as §2

[10] = system: giant foxtail (Setaria faberii); experiment: Test A pre-/postemergence plant response
Procedure, shortened: as §2

[11] = 62 g ai/ha, postemergence, 100 is complete control, 13 to 15 days
[12] = Postemergence, 125 g ai/ha, scale 0 to 100 (0 no effect, 100 complete control)
[13] = 31 g ai/ha, postemergence, scale 0 to 100, 0 is no effect, 100 is complete control
[14] = Postemergence, 250 g ai/ha, scale 0 to 100 (0 no effect, 100 complete control)
[15] = Postemergence, 125 g ai/ha, 0 to 100 scale where 0 is no effect and 100 is complete control
[16] = Postemergence, 500 g ai/ha, 0 to 100 scale, 0 = no effect, 100 = complete control, approx. ten days
[17] = Preemergence, 125 g ai/ha, 0 to 100 scale, 0 = no effect, 100 = complete control
[18] = Preemergence, 500 g ai/ha, visual injury, 0 to 100 scale (0 no effect, 100 complete control), approx. ten days
[19] = Postemergence, 31 g ai/ha, 0 to 100 scale (0 no effect, 100 complete control)
[20] = Postemergence, 250 g ai/ha, scale 0 to 100 (0 no effect, 100 complete control), 13 to 15 days
[21] = Postemergence, 62 g ai/ha, scale 0 to 100 (0 no effect, 100 complete control)
[22] = Preemergence, 31 g ai/ha, scale 0 to 100 (0 no effect, 100 complete control)
[23] = Preemergence, 62 g ai/ha, scale 0 to 100, 0 no effect, 100 complete control
[24] = Preemergence, 125 g ai/ha, scale 0 to 100, 0 no effect, 100 complete control
[25] = Preemergence, 250 g ai/ha, 0 to 100 scale
[26] = Postemergence, 1000 g ai/ha, 0 to 100 scale, 0 = no effect, 100 = complete control, approx. ten days
[27] = Preemergence, 1000 g ai/ha, visual injury, 0 to 100 scale (0 no effect, 100 complete control), approx. ten days
[28] = Postemergence, 125 g ai/ha, visual rating after 13 to 15 days, scale 0 (no effect) to 100 (complete control)
[29] = Postemergence, 500 g ai/ha, visual injury, 0 to 100 scale (0 no effect, 100 complete control), approx. ten days
[30] = Preemergence, 500 g ai/ha, 0 to 100 scale, 0 = no effect, 100 = complete control

Compound: CCCn1c(-c2cccc(OC)c2)ncc(C(=O)C2=C(O)CCCC2=O)c1=O [Compound 100]
- Wheat plant response rating (0 to 100 scale) [1, 11]: 5
- Plant response rating, Wheat [1, 12]: 15
- Plant response rating, Bermudagrass [2, 13]: 70
- Bermudagrass plant response rating (0 to 100 scale) [2, 11]: 70
- Plant response rating, Bermudagrass [2, 12]: 75
- Plant response rating, Bermudagrass [2, 14]: 85
- Plant response rating, Cocklebur [3, 13]: 40
- Cocklebur plant response rating (0 to 100 scale) [3, 11]: 85
- Plant response rating, Cocklebur [3, 12]: 95
- Plant response rating, Cocklebur [3, 14]: 98
- Plant response rating, Corn (corn (Zea mays); [15]): 0
- Plant response rating, Corn (corn (Zea mays); [16]): 0
- Plant response rating, Corn (corn (Zea mays); [17]): 0
- Plant response rating, Corn (corn (Zea mays); [18]): 0
- Plant response rating, Barnyardgrass [4, 15]: 80
- Plant response rating, Barnyardgrass [4, 16]: 90
- Plant response rating, Barnyardgrass [4, 17]: 40
- Plant response rating, Barnyardgrass [4, 18]: 90
- Plant response rating, Wheat [5, 15]: 0
- Plant response rating, Wheat [5, 16]: 30
- Plant response rating, Wheat [5, 17]: 0
- Plant response rating, Wheat [5, 18]: 0
- Plant response rating, Crabgrass, Large [6, 15]: 80
- Plant response rating, Crabgrass, Large [6, 16]: 90
- Plant response rating, Crabgrass, Large [6, 17]: 80
- Plant response rating, Crabgrass, Large [6, 18]: 90
- Plant response rating, Pigweed [7, 15]: 90
- Plant response rating, Pigweed [7, 16]: 100
- Plant response rating, Pigweed [7, 17]: 80
- Plant response rating, Pigweed [7, 18]: 100
- Plant response rating, Velvetleaf [8, 15]: 100
- Plant response rating, Velvetleaf [8, 16]: 100
- Plant response rating, Velvetleaf [8, 17]: 60
- Plant response rating, Velvetleaf [8, 18]: 80
- Plant response rating, Morningglory [9, 15]: 90
- Plant response rating, Morningglory [9, 16]: 100
- Plant response rating, Morningglory [9, 17]: 70
- Plant response rating, Morningglory [9, 18]: 80
- Plant response rating, Foxtail, Giant [10, 15]: 80
- Plant response rating, Foxtail, Giant [10, 16]: 90
- Plant response rating, Foxtail, Giant [10, 17]: 50
- Plant response rating, Foxtail, Giant [10, 18]: 80

Compound: CCCc1ncc(C(=O)C2=C(O)CCCC2=O)c(=O)n1-c1ccccc1 [Compound 217]
- Plant response rating, Wheat [1, 19]: 30
- Plant response rating, Wheat [1, 20]: 50
- Plant response rating, Wheat [1, 21]: 45
- Plant response rating, Wheat [1, 22]: 0
- Plant response rating, Wheat [1, 23]: 0
- Plant response rating, Wheat [1, 24]: 0
- Wheat plant response rating [1, 25]: 0
- Plant response rating, Bermudagrass [2, 19]: 70
- Plant response rating, Bermudagrass [2, 12]: 98
- Plant response rating, Bermudagrass [2, 20]: 100
- Plant response rating, Bermudagrass [2, 21]: 85
- Plant response rating, Bermudagrass [2, 22]: 98
- Plant response rating, Bermudagrass [2, 23]: 100
- Plant response rating, Bermudagrass [2, 24]: 100
- Bermudagrass plant response rating ([2]; Preemergence, 250 g ai/ha, 0 to 100 scale, 0 no effect, 100 complete control): 100
- Plant response rating, Cocklebur [3, 19]: 80
- Plant response rating, Cocklebur [3, 12]: 98
- Plant response rating, Cocklebur [3, 20]: 100
- Plant response rating, Cocklebur [3, 21]: 98
- Plant response rating, Cocklebur [3, 24]: 85
- Cocklebur plant response rating [3, 25]: 85
- Plant response rating, Corn (corn (Zea mays); [26]): 40
- Plant response rating, Corn (corn (Zea mays); [27]): 0
- Plant response rating, Barnyardgrass [4, 26]: 90
- Plant response rating, Barnyardgrass [4, 27]: 80
- Plant response rating, Wheat [5, 26]: 40
- Plant response rating, Wheat [5, 27]: 30
- Plant response rating, Crabgrass, Large [6, 26]: 100
- Plant response rating, Crabgrass, Large [6, 27]: 100
- Plant response rating, Pigweed [7, 26]: 100
- Plant response rating, Pigweed [7, 27]: 100
- Plant response rating, Velvetleaf [8, 26]: 100
- Plant response rating, Velvetleaf [8, 27]: 100
- Plant response rating, Morningglory [9, 26]: 100
- Plant response rating, Morningglory [9, 27]: 70
- Plant response rating, Foxtail, Giant [10, 26]: 80
- Plant response rating, Foxtail, Giant [10, 27]: 80

Compound: CCOCCn1c(-c2ccccc2)ncc(C(=O)C2=C(O)CCCC2=O)c1=O [Compound 96]
- Plant response rating, Wheat [1, 13]: 0
- Wheat plant response rating (0 to 100 scale) [1, 11]: 5
- Plant response rating, Wheat [1, 14]: 15
- Plant response rating, Bermudagrass [2, 13]: 80
- Bermudagrass plant response rating (0 to 100 scale) [2, 11]: 95
- Plant response rating, Bermudagrass [2, 28]: 95
- Plant response rating, Bermudagrass [2, 14]: 98
- Plant response rating, Cocklebur [3, 13]: 75
- Cocklebur plant response rating (0 to 100 scale) [3, 11]: 95
- Plant response rating, Cocklebur [3, 28]: 98
- Plant response rating, Cocklebur [3, 14]: 100
- Plant response rating, Corn (corn (Zea mays); [15]): 0
- Plant response rating, Corn (corn (Zea mays); [16]): 20
- Plant response rating, Corn (corn (Zea mays); [17]): 0
- Plant response rating, Corn (corn (Zea mays); [18]): 10
- Plant response rating, Barnyardgrass [4, 15]: 90
- Plant response rating, Barnyardgrass [4, 16]: 90
- Plant response rating, Barnyardgrass [4, 17]: 90
- Plant response rating, Barnyardgrass [4, 18]: 100
- Plant response rating, Wheat [5, 15]: 0
- Plant response rating, Wheat [5, 16]: 20
- Plant response rating, Wheat [5, 17]: 0
- Plant response rating, Wheat [5, 18]: 0
- Plant response rating, Crabgrass, Large [6, 15]: 90
- Plant response rating, Crabgrass, Large [6, 16]: 100
- Plant response rating, Crabgrass, Large [6, 17]: 100
- Plant response rating, Crabgrass, Large [6, 18]: 100
- Plant response rating, Pigweed [7, 15]: 100
- Plant response rating, Pigweed [7, 16]: 100
- Plant response rating, Pigweed [7, 17]: 100
- Plant response rating, Pigweed [7, 18]: 100
- Plant response rating, Velvetleaf [8, 15]: 100
- Plant response rating, Velvetleaf [8, 16]: 100
- Plant response rating, Velvetleaf [8, 17]: 100
- Plant response rating, Velvetleaf [8, 18]: 100
- Plant response rating, Morningglory [9, 15]: 100
- Plant response rating, Morningglory [9, 16]: 100
- Plant response rating, Morningglory [9, 17]: 80
- Plant response rating, Morningglory [9, 18]: 80
- Plant response rating, Foxtail, Giant [10, 15]: 70
- Plant response rating, Foxtail, Giant [10, 16]: 90
- Plant response rating, Foxtail, Giant [10, 17]: 50
- Plant response rating, Foxtail, Giant [10, 18]: 80

Compound: O=C1CCCC(O)=C1C(=O)c1cnc(C2CC2)n(C2CCCCC2)c1=O [Compound 160]
- Plant response rating, Wheat [1, 19]: 10
- Plant response rating, Wheat [1, 12]: 40
- Plant response rating, Wheat [1, 20]: 45
- Bermudagrass plant response rating (0 to 100 scale) [2, 11]: 75
- Plant response rating, Bermudagrass [2, 19]: 65
- Plant response rating, Bermudagrass [2, 12]: 90
- Plant response rating, Bermudagrass [2, 20]: 95
- Plant response rating, Cocklebur [3, 19]: 98
- Plant response rating, Cocklebur [3, 12]: 100
- Plant response rating, Cocklebur [3, 20]: 100
- Plant response rating, Corn (corn (Zea mays); [15]): 20
- Corn plant response rating (corn (Zea mays); [29]): 60
- Plant response rating, Corn (corn (Zea mays); [17]): 0
- Plant response rating, Corn (corn (Zea mays); [30]): 20
- Plant response rating, Barnyardgrass [4, 15]: 90
- Barnyardgrass plant response rating [4, 29]: 100
- Plant response rating, Barnyardgrass [4, 17]: 40
- Plant response rating, Barnyardgrass [4, 30]: 80
- Plant response rating, Wheat [5, 15]: 0
- Wheat plant response rating [5, 29]: 50
- Plant response rating, Wheat [5, 17]: 0
- Plant response rating, Wheat [5, 30]: 20
- Plant response rating, Crabgrass, Large [6, 15]: 90
- Crabgrass, Large plant response rating [6, 29]: 90
- Plant response rating, Crabgrass, Large [6, 17]: 80
- Plant response rating, Crabgrass, Large [6, 30]: 100
- Plant response rating, Pigweed [7, 15]: 100
- Pigweed plant response rating [7, 29]: 100
- Plant response rating, Pigweed [7, 17]: 80
- Plant response rating, Pigweed [7, 30]: 100
- Plant response rating, Velvetleaf [8, 15]: 100
- Velvetleaf plant response rating [8, 29]: 100
- Plant response rating, Velvetleaf [8, 17]: 60
- Plant response rating, Velvetleaf [8, 30]: 30
- Plant response rating, Morningglory [9, 15]: 100
- Morningglory plant response rating [9, 29]: 100
- Plant response rating, Morningglory [9, 17]: 70
- Plant response rating, Foxtail, Giant [10, 15]: 70
- Foxtail, Giant plant response rating [10, 29]: 80
- Plant response rating, Foxtail, Giant [10, 17]: 20
- Plant response rating, Foxtail, Giant [10, 30]: 70
